In data set [1] the test system is Mus musculus. The data set is described as follows: Antiinflammatory activity against BALB/c mouse model of heat-killed Propionibacterium acnes-induced peritonitis assessed as decrease in number of neutrophils at 300 pg, ip administered 12 hrs post Propionibacterium acnes injection and measured after 12 hrs. Type of data set: functional, organism-based.
A short description of data set [2]: Metabolic stability in human liver microsomes assessed as parent compound remaining measured after 6 hrs by HPLC analysis. Type of data set: ADME, Microsome. Conditions: read-out: Stability. For orientation: Liver microsomes are a subcellular fraction often used to study metabolism.
In data set [3] the test system is Mus musculus. The data set is described as follows: Antiinflammatory activity against ip dosed BALB/c mouse model of heat-killed Propionibacterium acnes-induced peritonitis assessed as decrease in number of neutrophils administered 12 hrs post Propionibacterium acnes injection and measured after 12 hrs. Type of data set: functional, organism-based.

SMILES strings stand for the structures. Active and inactive are the calls of the source. The calls are words filed in the database; no cut-off is given here.

In the case of `CC[C@@H](O)/C=C/c1ccc(C/C=C/[C@@H](O)CCCC(=O)O)cc1`, the inhibition entry in the data set with Mus musculus [1] is “inactive”. In addition, in data set [2], the remaining at 6 h was less than 40%.

As to `CC[C@@H](O)/C=C/C=C\C/C=C\C/C=C\C=C\[C@@H](O)CCCC(=O)O`, the inhibition result with Mus musculus [3] is “Dose-dependent effect”. In addition, the inhibition entry with Mus musculus [1] was “Active”. In addition, in data set [2], the remaining at 6 h is less than 40%.

Regarding `CC[C@@H](O)/C=C/c1ccccc1C/C=C/[C@@H](O)CCCC(=O)O`, the inhibition entry in the data set with Mus musculus [3] was “Dose-dependent effect”. In addition, the inhibition entry in the data set with Mus musculus [1] was “Active”.

Consider `CC[C@@H](O)/C=C/c1cccc(C/C=C/[C@@H](O)CCCC(=O)O)c1`, for which the inhibition result in the data set on Mus musculus [1] was “inactive”.
